In paper PMC9506414, “Novel 2,6,9-Trisubstituted Purines as Potent CDK Inhibitors Alleviating Trastuzumab-Resistance of HER2-Positive Breast Cancers” (Pharmaceuticals, 2022):

Assays:
Test in all cases: Kinome-wide inhibition profiling
Assay type in all cases: biochemical
[1] = target: T1, ACVR1 (Homo sapiens, UniProt Q04771)
T1 construct: purchased Reaction Biology Corp
Experimental: (§1) In vitro CDK12/cyclinK assays for all compounds and in vitro kinome-wide inhibition profiling of 30d at 10 μM were performed by a CRO company (Reaction Biology Corp., San Diego, CA, USA).

[2] = target: T2, AurkC (Homo sapiens, UniProt Q9UQB9)
T2 construct: purchased Reaction Biology Corp
Experimental: as §1

[3] = target: T3, BRSK1 (Homo sapiens, UniProt Q8TDC3)
T3 construct: purchased Reaction Biology Corp
Experimental: as §1

[4] = target: T4, CAMK1a (Homo sapiens, UniProt Q14012)
T4 construct: purchased Reaction Biology Corp
Experimental: as §1

[5] = target: T5, CAMK1d (Homo sapiens, UniProt Q8IU85)
T5 construct: purchased Reaction Biology Corp
Experimental: as §1

[6] = target: T6, CDK16 (Homo sapiens, UniProt Q00536)
T6 construct: purchased Reaction Biology Corp
Experimental: as §1

[7] = target: T7, CDK5/p35 (Homo sapiens, UniProt Q00535)
T7 construct: purchased Reaction Biology Corp
Experimental: as §1

[8] = target: T8, CSNK1A1L (Homo sapiens, UniProt Q8N752)
T8 construct: purchased Reaction Biology Corp
Experimental: as §1

[9] = target: T9, DCAMKL1 (Homo sapiens, UniProt O15075)
T9 construct: purchased Reaction Biology Corp
Experimental: as §1

[10] = target: T10, EPHA3 (Homo sapiens, UniProt P29320)
T10 construct: purchased Reaction Biology Corp
Experimental: as §1

[11] = target: T11, EPHB1 (Homo sapiens, UniProt P54762)
T11 construct: purchased Reaction Biology Corp
Experimental: as §1

[12] = target: T12, ERBB4 (Homo sapiens, UniProt Q15303)
T12 construct: purchased Reaction Biology Corp
Experimental: as §1

[13] = target: T13, ERN1 (Homo sapiens, UniProt O75460)
T13 construct: purchased Reaction Biology Corp
Experimental: as §1

[14] = target: T14, FES (Homo sapiens, UniProt P07332)
T14 construct: purchased Reaction Biology Corp
Experimental: as §1

[15] = target: T15, FGFR4 (Homo sapiens, UniProt P22455)
T15 construct: purchased Reaction Biology Corp
Experimental: as §1

[16] = target: T16, ICK (Homo sapiens, UniProt Q9UPZ9)
T16 construct: purchased Reaction Biology Corp
Experimental: as §1

[17] = target: T17, IRAK4 (Homo sapiens, UniProt Q9NWZ3)
T17 construct: purchased Reaction Biology Corp
Experimental: as §1

[18] = target: T18, JAK1 (Homo sapiens, UniProt P23458)
T18 construct: purchased Reaction Biology Corp
Experimental: as §1

[19] = target: T19, MEKK6 (Homo sapiens, UniProt O95382)
T19 construct: purchased Reaction Biology Corp
Experimental: as §1

[20] = target: T20, MKK6 (Homo sapiens, UniProt P52564)
T20 construct: purchased Reaction Biology Corp
Experimental: as §1

[21] = target: T21, MST3 (Homo sapiens, UniProt Q9Y6E0)
T21 construct: purchased Reaction Biology Corp
Experimental: as §1

[22] = target: T22, NEK5 (Homo sapiens, UniProt Q6P3R8)
T22 construct: purchased Reaction Biology Corp
Experimental: as §1

[23] = target: T23, P38-alpha (Homo sapiens, UniProt Q16539)
T23 construct: purchased Reaction Biology Corp
Experimental: as §1

[24] = target: T24, PIM2 (Homo sapiens, UniProt Q9P1W9)
T24 construct: purchased Reaction Biology Corp
Experimental: as §1

[25] = target: T25, PKA (Homo sapiens, UniProt P17612)
T25 construct: purchased Reaction Biology Corp
Experimental: as §1

[26] = target: T26, PLK2 (Homo sapiens, UniProt Q9NYY3)
T26 construct: purchased Reaction Biology Corp
Experimental: as §1

[27] = target: T27, PRKCE (Homo sapiens, UniProt Q02156)
T27 construct: purchased Reaction Biology Corp
Experimental: as §1

[28] = target: T28, PRKCQ (Homo sapiens, UniProt Q04759)
T28 construct: purchased Reaction Biology Corp
Experimental: as §1

[29] = target: T29, RIPK2 (Homo sapiens, UniProt O43353)
T29 construct: purchased Reaction Biology Corp
Experimental: as §1

[30] = target: T30, RIPK5 (Homo sapiens, UniProt Q6XUX3)
T30 construct: purchased Reaction Biology Corp
Experimental: as §1

[31] = target: T31, ROCK1 (Homo sapiens, UniProt Q13464)
T31 construct: purchased Reaction Biology Corp
Experimental: as §1

[32] = target: T32, ROS1 (Homo sapiens, UniProt P08922)
T32 construct: purchased Reaction Biology Corp
Experimental: as §1

[33] = target: T33, RSK2 (Homo sapiens, UniProt P51812)
T33 construct: purchased Reaction Biology Corp
Experimental: as §1

[34] = target: T34, TAOK3 (Homo sapiens, UniProt Q9H2K8)
T34 construct: purchased Reaction Biology Corp
Experimental: as §1

[35] = target: T35, TESK1 (Homo sapiens, UniProt Q15569)
T35 construct: purchased Reaction Biology Corp
Experimental: as §1

[36] = target: T36, TLK1 (Homo sapiens, UniProt Q9UKI8)
T36 construct: purchased Reaction Biology Corp
Experimental: as §1

[37] = target: T37, TRKB (Homo sapiens, UniProt Q16620)
T37 construct: purchased Reaction Biology Corp
Experimental: as §1

[38] = target: T38, TSSK1B (Homo sapiens, UniProt Q9BXA7)
T38 construct: purchased Reaction Biology Corp
Experimental: as §1

[39] = target: T39, TSSK6 (Homo sapiens, UniProt Q9BXA6)
T39 construct: purchased Reaction Biology Corp
Experimental: as §1

[40] = target: T40, TYRO3 (Homo sapiens, UniProt Q06418)
T40 construct: purchased Reaction Biology Corp
Experimental: as §1

[41] = target: T41, ULK2 (Homo sapiens, UniProt Q8IYT8)
T41 construct: purchased Reaction Biology Corp
Experimental: as §1

[42] = target: T42, YSK1 (Homo sapiens, UniProt O00506)
T42 construct: purchased Reaction Biology Corp
Experimental: as §1

[43] = target: T43, YSK4 (Homo sapiens, UniProt Q56UN5)
T43 construct: purchased Reaction Biology Corp
Experimental: as §1

T7 sequence (Q00535 whole entry): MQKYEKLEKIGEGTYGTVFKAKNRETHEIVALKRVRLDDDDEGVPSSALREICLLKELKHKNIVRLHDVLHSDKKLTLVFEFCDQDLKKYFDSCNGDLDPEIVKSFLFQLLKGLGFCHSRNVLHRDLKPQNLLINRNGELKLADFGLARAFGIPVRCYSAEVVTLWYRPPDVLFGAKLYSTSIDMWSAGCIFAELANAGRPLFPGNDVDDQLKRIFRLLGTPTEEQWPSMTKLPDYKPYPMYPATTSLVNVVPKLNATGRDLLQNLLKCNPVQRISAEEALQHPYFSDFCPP
T7 sequence (Q15078 whole entry partner): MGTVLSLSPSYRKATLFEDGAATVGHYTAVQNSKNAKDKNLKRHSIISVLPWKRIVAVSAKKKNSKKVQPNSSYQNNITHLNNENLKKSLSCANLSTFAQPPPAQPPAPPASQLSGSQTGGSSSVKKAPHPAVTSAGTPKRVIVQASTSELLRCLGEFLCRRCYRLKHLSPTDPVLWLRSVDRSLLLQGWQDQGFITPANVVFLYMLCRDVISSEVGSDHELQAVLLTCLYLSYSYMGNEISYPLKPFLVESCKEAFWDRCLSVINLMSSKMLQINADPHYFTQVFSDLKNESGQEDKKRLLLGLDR
T26 sequence (Q9NYY3 whole entry): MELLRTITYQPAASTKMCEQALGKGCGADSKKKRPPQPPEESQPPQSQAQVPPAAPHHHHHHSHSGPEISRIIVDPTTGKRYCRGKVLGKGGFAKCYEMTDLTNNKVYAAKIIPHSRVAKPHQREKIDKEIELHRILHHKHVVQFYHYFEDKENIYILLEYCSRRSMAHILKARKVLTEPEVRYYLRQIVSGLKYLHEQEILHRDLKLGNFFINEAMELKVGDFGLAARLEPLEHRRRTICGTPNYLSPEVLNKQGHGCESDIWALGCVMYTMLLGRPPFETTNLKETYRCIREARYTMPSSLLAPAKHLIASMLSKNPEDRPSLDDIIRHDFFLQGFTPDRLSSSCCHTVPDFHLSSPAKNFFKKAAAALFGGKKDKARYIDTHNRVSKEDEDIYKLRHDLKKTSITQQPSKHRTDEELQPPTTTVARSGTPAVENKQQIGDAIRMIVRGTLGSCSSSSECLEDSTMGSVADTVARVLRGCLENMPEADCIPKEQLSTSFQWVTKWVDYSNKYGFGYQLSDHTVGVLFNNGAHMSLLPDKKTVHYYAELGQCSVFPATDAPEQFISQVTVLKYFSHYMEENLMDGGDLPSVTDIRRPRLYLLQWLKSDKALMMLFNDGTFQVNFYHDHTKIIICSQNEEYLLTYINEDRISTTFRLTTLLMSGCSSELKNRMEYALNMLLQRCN
T36 sequence (Q9UKI8 whole entry): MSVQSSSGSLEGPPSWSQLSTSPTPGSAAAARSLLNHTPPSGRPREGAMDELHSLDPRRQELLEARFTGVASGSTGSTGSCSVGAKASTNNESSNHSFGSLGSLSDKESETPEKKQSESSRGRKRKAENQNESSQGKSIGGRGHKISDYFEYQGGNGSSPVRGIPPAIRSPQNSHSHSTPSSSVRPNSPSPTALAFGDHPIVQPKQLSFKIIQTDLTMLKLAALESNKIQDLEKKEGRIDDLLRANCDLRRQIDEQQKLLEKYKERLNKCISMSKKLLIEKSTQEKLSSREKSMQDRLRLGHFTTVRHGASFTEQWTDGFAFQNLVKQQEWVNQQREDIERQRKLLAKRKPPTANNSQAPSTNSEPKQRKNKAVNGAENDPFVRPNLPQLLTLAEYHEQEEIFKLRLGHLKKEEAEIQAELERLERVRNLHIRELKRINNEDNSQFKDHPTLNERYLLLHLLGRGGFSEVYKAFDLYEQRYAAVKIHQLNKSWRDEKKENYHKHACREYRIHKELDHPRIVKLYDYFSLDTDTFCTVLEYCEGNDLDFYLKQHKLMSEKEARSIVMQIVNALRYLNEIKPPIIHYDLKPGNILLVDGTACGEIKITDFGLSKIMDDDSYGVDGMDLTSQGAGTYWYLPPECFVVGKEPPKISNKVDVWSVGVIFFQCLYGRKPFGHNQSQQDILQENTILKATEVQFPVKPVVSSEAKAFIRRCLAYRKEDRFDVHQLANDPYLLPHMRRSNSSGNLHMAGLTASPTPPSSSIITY
T22 sequence (Q6P3R8 whole entry): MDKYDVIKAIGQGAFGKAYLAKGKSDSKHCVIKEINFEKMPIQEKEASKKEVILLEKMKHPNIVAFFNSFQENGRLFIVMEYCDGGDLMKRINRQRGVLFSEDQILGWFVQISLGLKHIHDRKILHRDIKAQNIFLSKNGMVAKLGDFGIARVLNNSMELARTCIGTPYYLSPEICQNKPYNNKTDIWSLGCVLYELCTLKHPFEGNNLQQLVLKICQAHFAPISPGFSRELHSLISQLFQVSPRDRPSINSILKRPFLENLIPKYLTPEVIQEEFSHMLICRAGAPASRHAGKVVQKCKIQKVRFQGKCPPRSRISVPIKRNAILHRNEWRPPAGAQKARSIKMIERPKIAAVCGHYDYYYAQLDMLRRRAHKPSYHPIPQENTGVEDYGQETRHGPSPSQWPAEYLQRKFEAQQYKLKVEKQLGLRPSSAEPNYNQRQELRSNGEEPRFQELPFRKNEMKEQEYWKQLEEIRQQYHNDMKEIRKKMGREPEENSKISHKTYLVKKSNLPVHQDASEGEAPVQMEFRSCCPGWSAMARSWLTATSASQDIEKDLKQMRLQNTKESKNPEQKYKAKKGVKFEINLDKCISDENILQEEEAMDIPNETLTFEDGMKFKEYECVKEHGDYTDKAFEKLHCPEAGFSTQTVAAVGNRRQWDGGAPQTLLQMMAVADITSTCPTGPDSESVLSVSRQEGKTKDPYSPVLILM
T37 sequence (Q16620 32-822): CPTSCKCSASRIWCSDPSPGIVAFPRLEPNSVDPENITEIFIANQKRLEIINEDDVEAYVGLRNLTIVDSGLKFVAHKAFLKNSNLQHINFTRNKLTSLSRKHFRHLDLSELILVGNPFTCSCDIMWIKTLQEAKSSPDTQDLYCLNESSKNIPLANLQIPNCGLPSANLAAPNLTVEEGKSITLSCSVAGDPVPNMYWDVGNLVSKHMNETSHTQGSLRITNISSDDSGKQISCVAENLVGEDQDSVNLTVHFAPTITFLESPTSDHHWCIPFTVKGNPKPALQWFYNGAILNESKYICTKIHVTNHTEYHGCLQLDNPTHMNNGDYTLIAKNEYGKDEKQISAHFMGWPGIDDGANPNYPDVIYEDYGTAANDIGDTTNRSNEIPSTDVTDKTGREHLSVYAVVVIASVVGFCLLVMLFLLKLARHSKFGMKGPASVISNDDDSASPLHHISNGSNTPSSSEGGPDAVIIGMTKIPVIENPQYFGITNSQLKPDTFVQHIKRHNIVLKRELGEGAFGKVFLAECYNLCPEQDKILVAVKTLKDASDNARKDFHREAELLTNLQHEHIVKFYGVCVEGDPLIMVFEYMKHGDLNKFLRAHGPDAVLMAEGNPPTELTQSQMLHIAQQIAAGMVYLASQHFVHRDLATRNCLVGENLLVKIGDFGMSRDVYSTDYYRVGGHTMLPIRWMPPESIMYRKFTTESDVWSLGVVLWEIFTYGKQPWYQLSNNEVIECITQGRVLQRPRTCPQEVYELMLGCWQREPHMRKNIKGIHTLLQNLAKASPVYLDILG
T34 sequence (Q9H2K8 whole entry): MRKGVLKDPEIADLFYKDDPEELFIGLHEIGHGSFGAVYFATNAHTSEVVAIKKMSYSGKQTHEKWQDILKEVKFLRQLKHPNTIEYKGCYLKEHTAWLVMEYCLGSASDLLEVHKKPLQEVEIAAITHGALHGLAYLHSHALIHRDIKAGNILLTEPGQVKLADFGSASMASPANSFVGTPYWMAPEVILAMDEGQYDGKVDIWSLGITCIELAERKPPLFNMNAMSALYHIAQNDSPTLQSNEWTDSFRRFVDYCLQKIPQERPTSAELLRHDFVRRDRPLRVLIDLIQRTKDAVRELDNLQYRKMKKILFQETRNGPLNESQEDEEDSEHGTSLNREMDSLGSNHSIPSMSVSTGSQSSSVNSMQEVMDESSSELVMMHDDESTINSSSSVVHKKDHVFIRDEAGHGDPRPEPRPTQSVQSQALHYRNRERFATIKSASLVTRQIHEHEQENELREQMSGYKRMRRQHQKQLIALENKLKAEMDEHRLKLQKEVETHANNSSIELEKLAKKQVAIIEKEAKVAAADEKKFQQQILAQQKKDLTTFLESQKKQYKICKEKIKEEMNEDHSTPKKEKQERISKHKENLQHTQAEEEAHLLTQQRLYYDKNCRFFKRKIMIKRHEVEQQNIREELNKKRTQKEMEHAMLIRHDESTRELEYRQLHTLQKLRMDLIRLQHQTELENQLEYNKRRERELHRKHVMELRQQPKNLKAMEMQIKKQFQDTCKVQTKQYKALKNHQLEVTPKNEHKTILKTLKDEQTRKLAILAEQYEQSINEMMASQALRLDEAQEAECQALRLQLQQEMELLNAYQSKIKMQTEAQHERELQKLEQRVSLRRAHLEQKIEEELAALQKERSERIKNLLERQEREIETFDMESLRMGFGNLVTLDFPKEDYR
T4 sequence (Q14012 whole entry): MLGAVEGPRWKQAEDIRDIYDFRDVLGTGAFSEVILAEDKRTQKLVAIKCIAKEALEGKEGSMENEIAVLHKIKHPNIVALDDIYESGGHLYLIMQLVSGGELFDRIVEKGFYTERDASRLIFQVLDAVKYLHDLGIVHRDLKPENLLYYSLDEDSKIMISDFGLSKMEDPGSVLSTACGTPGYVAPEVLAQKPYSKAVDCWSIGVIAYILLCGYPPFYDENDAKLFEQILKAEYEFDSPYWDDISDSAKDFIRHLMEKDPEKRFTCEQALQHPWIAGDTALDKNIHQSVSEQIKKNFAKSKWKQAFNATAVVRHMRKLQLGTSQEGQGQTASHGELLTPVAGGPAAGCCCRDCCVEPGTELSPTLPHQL

## CCn1cnc2c(NCc3ccc(-c4ccccn4)nc3)nc(-c3ccc(N)nc3)nc21 [Compound 30d, N-([2,2′-Bipyridin]-5-ylmethyl)-2-(6-aminopyridin-3-yl)-9-ethyl-9H-purin-6-amine]
[1]
  remaining activity at 10 µM: 118%
[2]
  remaining activity at 10 µM: 25.5%
[3]
  remaining activity at 10 µM: 92.8%
[4]
  remaining activity at 10 µM: 34%
[5]
  remaining activity at 10 µM: 58%
[6]
  remaining activity at 10 µM: 17.5%
[7]
  inhibition at 10 µM: > 95%
  remaining activity at 10 µM: 0.7%
[8]
  remaining activity at 10 µM: 53.1%
[9]
  remaining activity at 10 µM: 72.6%
[10]
  remaining activity at 10 µM: 7.8%
[11]
  remaining activity at 10 µM: 13.6%
[12]
  remaining activity at 10 µM: 73%
[13]
  remaining activity at 10 µM: 50.8%
[14]
  remaining activity at 10 µM: 6.4%
[15]
  remaining activity at 10 µM: 87.4%
[16]
  remaining activity at 10 µM: 39.6%
[17]
  remaining activity at 10 µM: 94.8%
[18]
  remaining activity at 10 µM: 92.1%
[19]
  remaining activity at 10 µM: 109%
[20]
  remaining activity at 10 µM: 95.4%
[21]
  remaining activity at 10 µM: 47%
[22]
  remaining activity at 10 µM: 83.8%
[23]
  remaining activity at 10 µM: 84.2%
[24]
  remaining activity at 10 µM: 93.8%
[25]
  remaining activity at 10 µM: 93.1%
[26]
  remaining activity at 10 µM: 107%
[27]
  remaining activity at 10 µM: 94.1%
[28]
  remaining activity at 10 µM: 79.8%
[29]
  remaining activity at 10 µM: 66.1%
[30]
  remaining activity at 10 µM: 67.8%
[31]
  remaining activity at 10 µM: 97.2%
[32]
  remaining activity at 10 µM: 27.8%
[33]
  remaining activity at 10 µM: 69.4%
[34]
  remaining activity at 10 µM: 23.1%
[35]
  remaining activity at 10 µM: 93.1%
[36]
  remaining activity at 10 µM: 67.8%
[37]
  remaining activity at 10 µM: 16.5%
[38]
  remaining activity at 10 µM: 38%
[39]
  remaining activity at 10 µM: 86.9%
[40]
  remaining activity at 10 µM: 22.4%
[41]
  remaining activity at 10 µM: 87.3%
[42]
  remaining activity at 10 µM: 23.1%
[43]
  remaining activity at 10 µM: 96.8%
